Experimental data: patent publication US11834453B2, “Substituted pyrimido[5,4-d]pyrimidines as HER2 inhibitors” (Array BioPharma Inc., priority 2020, dated 2023)

Tests used:
EGFR = EGFR (Homo sapiens (Human), UniProt P00533); assay: ErbB enzyme assay (CisBio HTRF KinEASE-TK), Assay 3; format: biochemical
In short: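 Inhibition is measured as reduced peptide phosphorylation by HTRF KinEASE-TK at 1 mM ATP and 250 nM substrate, 30 min at 22 °C. Values are IC50s from a 4-parameter logistic fit.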

ErbB2 WT = ErbB2 WT (Homo sapiens (Human), UniProt P04626); assay: ErbB enzyme assay (CisBio HTRF KinEASE-TK), Assay 2; format: biochemical
In short: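 ErbB2 phosphorylates 250 nM biotin-TK substrate at 1 mM ATP in 25 mM HEPES pH 7.4, 10 mM MgCl2, 0.01% Triton X-100 and 2% DMSO, for 30 min at 22 °C. Product is detected by HTRF with Sa-XL665 and TK-Ab-Cryptate. Percent of control is set by DMSO-only wells and pre-quenched wells.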

[1] = target: ErbB2 insYVMA (HER2-YVMA, SEQ ID NO: 2) (Homo sapiens, UniProt P04626, INS775YVMA/P1170A); assay: biochemical; settings: ErbB2 insYVMA enzyme assay; read-out: Assay 1 IC50
EGFR wild type (EGFR WT) [2] = target: T1, EGFR wild type (EGFR WT) (Homo sapiens (Human), UniProt P00533); assay: Cellular phosphorylation assay, EGF-stimulated EGFR phosphorylation (Y1068) in engineered NIH 3T3 cells, Odyssey imaging, Assay 5 (footnote 1); format: cell-based; settings: values marked with footnote 1
Method: NIH 3T3 cells were engineered to express ErbB2 with Exon 20 YVMA insertion (HER2-YVMA (SEQ ID NO: 2); Assay 4) or EGFR wild type (EGFR WT; Assay 5, footnote 1) with constructs obtained from GenScript and grown in DMEM supplemented with 10% fetal bovine serum and 15 μg/ml blasticidin. Cells were plated in 96-well plates at 40,000 or 45,000 cells/well for HER2-YVMA (SEQ ID NO: 2) and EGFR WT assays, respectively, and allowed to attach overnight at 37° C./5% CO2. Serially diluted compounds were added to the plates for 1 hour at 37° C./5% CO2. EGFR WT cells were stimulated with 100 ng/ml rEGF for an additional 10 minutes at 37° C./5% CO2. After compound incubation, medium was removed from the cells, which were then fixed in 3.7% formaldehyde in PBS at room temperature for 20 minutes. Following a wash with PBS, cells were permeabilized with 100% methanol at room temperature for 10 minutes. Cells were then washed with PBS/0.05% Tween-20 and blocked with Odyssey blocking buffer (LI-COR Biosciences) for at least 1 hour at room temperature. Antibodies to phosphorylated ErbB2 (Y1196, Cell Signaling #6942) or phosphorylated EGFR (Y1068, Cell Signaling #3777) and GAPDH (Millipore #MAB374) were added to the cells in blocking buffer containing 0.05% azide and incubated overnight at 4° C. After washing with PBS/0.05° i° Tween-20, the cells were incubated with fluorescently labeled secondary anti-rabbit antibody (LiCOR, IRDye 800CW #926-32211) and anti-mouse antibody (Molecular Probes, Alexa Fluor 680 #A21058) for 1 hour at room temperature in the dark. Cells were then washed and analyzed for fluorescence at both wavelengths using the Odyssey Infrared Imaging System (LI-COR Biosciences). Phosphorylated ErbB2 and EGFR signal was normalized to GAPDH signal to generate curves and calculate IC50 values.

[3] = target: ErbB2 with Exon 20 YVMA insertion (HER2-YVMA) (Homo sapiens (Human), UniProt P04626, INS775YVMA); assay: Cellular phosphorylation assay, constitutive ErbB2 phosphorylation (Y1196) in engineered NIH 3T3 cells, Assay 4; format: cell-based
In short: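 Engineered NIH 3T3 cells expressing HER2-YVMA treated with compounds 1 h at 37 °C, then formaldehyde-fixed and methanol-permeabilized. pErbB2 Y1196 detected by in-cell infrared immunofluorescence, normalized to GAPDH. IC50 from the normalized curves.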

MDR1 (P-gp) [4] = target: T2, MDR1 (P-gp) (Homo sapiens (Human), UniProt P08183); assay: MDR1 transfected LLC-PK1 permeability/efflux, Assay 6; settings: pig, LLC-PK1, Assay 6 Pe Ratio, efflux ratio Papp(B-A)/Papp(A-B), MDR1 transfected LLC-PK1
BCRP = BCRP (Homo sapiens (Human), UniProt Q9UNQ0); assay: BCRP transfected MDCKII permeability/efflux, Assay 8; format: in vitro ADME; settings: dog, efflux ratio Papp(B-A)/Papp(A-B), read-out: Assay 8 Pe Ratio
Method: BCRP transfected MDCKII cells (Assay 8) and BCRP transfected MDCKII canine Mdr1 knockout cells (Assay 9) were cultured and plated according to manufacturer's recommendations.
Both positive and negative controls were used to assess functionality of P-gp or BCRP efflux in the assays. Stock solutions for assay controls and the test article were prepared in DMSO for final test concentration of 1 μM. Final organic concentration in the assay was 1%. All dosing solutions contained 10 μM lucifer yellow to monitor MDCKII cell monolayer integrity.
For the apical to basolateral determination (A to B), 75 μL of the test article in transport buffer were added to the apical side of the individual transwells and 250 μL of basolateral media, without compound or lucifer yellow, were added to each well. For the basolateral to apical determination (B to A), 250 μL of test article in transport buffer were added to each well and 75 μL transport buffer, without compound or lucifer yellow, were added to each transwell. All tests were performed in triplicate, and each compound was tested for both apical to basolateral and basolateral to apical transport. The plates were incubated for 2 hours on a Lab-Line Instruments Titer Orbital Shaker (VWR, West Chester, PA) at 50 rpm and 37° C. with 5% CO2. All culture plates were removed from the incubator, 50 μL of media were removed from the apical and basolateral portion of each well, and added to 150 μL of 1 μM labetalol in 2:1 acetonitrile (ACN): H2O, v/v.
The plates were read using a Molecular Devices (Sunnyvale, CA) Gemini Fluorometer to evaluate the lucifer yellow concentrations at excitation/emission wavelengths of 425/535 nm. […] The plates were sealed, and the contents of each well analyzed by LC MS/MS. The compound concentrations were determined from the ratio of the peak areas of the compound to the internal standard (labetalol) in comparison to the dosing solution.
A MDS Sciex API 4000 (Applied Biosystems, Foster City, CA) mass spectrometer was used for detection of the analytes in the ion spray positive mode. Analyte responses were measured by multiple reaction monitoring (“MRM”) of transitions unique to each compound (the protonated precursor ion and selected product ions for each test article and m/z 329 to m/z 162 for labetalol, the internal standard.
The total run time, including re-equilibration, for a single injection was 1.2 minutes. […] The total run time, including re-equilibration, for a single injection was 0.61 minutes.
An efflux ratio is calculated from the mean apical to basolateral (A-B) Papp data and basolateral to apical (B-A) Papp data: Efflux ratio=Papp(B−A)/Papp(A−B)

EGFR wild type (EGFR WT) [5] = target: T1, EGFR wild type (EGFR WT); assay: Cellular phosphorylation assay, EGF-stimulated EGFR phosphorylation in engineered NIH 3T3 cells, Phospho-EGFR DuoSet IC ELISA, Assay 5; format: cell-based
In short: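 NIH 3T3 cells expressing EGFR WT (20,000/well, attached overnight) were exposed to serially diluted compound for 1 h at 37 °C, then stimulated with 100 ng/ml rEGF for 10 min. Phospho-EGFR in lysates measured by sandwich ELISA optical density; IC50 from curves.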

MDR1 (P-gp) [6] = target: T2, MDR1 (P-gp); assay: MDR1 transfected MDCKII canine Mdr1 knockout permeability/efflux, Assay 7; settings: dog, MDCK-MDR1

T2 sequence (P08183 whole entry): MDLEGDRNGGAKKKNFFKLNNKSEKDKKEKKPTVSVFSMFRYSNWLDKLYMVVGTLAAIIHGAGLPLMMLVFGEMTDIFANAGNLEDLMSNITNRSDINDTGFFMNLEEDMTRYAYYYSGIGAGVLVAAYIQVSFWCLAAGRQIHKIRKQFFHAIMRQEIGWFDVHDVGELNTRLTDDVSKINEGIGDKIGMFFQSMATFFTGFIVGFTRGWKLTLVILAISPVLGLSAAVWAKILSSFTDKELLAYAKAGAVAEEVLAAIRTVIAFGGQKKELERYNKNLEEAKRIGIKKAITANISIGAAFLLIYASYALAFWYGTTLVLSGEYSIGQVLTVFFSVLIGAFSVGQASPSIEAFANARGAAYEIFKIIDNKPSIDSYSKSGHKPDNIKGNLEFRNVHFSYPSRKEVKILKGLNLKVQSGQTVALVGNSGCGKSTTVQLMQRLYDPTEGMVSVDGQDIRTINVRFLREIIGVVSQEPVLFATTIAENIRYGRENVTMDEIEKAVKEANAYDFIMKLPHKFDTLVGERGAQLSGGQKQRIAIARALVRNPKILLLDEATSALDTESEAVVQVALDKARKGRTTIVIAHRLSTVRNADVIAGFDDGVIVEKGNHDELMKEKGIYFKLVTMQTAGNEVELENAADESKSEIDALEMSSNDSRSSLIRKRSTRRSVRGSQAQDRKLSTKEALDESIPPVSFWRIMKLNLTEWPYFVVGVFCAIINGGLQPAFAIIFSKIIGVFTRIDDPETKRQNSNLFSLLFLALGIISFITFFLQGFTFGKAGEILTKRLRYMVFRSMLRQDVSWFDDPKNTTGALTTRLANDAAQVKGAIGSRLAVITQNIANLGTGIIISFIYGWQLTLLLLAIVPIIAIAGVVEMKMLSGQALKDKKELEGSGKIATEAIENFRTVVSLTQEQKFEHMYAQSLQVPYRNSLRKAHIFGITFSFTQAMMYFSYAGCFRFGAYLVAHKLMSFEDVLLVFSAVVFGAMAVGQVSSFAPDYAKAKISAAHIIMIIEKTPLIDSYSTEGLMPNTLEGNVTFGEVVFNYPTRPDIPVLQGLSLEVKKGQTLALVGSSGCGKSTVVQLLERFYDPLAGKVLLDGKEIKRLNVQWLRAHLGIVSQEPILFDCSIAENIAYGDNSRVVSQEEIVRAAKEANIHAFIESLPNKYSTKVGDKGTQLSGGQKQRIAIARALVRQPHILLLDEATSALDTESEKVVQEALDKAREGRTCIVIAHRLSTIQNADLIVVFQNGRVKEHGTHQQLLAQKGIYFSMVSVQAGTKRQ
T1 sequence (P00533 25-1210): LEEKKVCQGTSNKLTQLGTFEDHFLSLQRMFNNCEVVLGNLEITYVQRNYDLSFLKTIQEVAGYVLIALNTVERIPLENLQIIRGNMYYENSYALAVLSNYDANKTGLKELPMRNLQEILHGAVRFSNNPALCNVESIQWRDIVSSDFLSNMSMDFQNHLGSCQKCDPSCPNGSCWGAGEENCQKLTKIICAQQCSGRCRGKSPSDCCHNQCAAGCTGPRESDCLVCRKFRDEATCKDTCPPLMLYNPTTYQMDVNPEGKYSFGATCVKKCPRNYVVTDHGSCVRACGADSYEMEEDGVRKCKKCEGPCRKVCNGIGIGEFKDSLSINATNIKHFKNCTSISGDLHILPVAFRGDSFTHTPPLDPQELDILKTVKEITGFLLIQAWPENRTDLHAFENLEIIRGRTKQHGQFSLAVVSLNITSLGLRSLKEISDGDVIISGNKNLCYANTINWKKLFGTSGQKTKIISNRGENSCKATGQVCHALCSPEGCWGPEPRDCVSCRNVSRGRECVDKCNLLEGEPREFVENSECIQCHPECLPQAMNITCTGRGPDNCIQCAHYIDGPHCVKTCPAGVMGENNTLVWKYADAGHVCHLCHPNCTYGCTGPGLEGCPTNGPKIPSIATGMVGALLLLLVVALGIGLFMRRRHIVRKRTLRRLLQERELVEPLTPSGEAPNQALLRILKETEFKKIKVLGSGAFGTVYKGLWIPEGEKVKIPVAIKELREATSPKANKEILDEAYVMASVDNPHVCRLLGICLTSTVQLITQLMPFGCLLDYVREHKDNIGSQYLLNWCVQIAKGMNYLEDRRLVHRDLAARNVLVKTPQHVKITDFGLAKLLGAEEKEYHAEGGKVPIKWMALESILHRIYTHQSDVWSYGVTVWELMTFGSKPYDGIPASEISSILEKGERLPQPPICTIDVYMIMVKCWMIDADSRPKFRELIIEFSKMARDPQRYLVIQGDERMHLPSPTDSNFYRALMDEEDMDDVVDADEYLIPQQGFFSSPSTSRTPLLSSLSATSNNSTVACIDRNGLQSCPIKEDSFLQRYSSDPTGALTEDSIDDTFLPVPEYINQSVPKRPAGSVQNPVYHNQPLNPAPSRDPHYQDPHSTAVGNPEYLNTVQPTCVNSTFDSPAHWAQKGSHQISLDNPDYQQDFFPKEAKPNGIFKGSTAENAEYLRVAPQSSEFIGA
EGFR, sequence (P00533 25-1210): as above
ErbB2 with Exon 20 YVMA insertion (HER2-YVMA), sequence (P04626 other isoform, or with tags, fused parts or gaps ins YVMA behind 775): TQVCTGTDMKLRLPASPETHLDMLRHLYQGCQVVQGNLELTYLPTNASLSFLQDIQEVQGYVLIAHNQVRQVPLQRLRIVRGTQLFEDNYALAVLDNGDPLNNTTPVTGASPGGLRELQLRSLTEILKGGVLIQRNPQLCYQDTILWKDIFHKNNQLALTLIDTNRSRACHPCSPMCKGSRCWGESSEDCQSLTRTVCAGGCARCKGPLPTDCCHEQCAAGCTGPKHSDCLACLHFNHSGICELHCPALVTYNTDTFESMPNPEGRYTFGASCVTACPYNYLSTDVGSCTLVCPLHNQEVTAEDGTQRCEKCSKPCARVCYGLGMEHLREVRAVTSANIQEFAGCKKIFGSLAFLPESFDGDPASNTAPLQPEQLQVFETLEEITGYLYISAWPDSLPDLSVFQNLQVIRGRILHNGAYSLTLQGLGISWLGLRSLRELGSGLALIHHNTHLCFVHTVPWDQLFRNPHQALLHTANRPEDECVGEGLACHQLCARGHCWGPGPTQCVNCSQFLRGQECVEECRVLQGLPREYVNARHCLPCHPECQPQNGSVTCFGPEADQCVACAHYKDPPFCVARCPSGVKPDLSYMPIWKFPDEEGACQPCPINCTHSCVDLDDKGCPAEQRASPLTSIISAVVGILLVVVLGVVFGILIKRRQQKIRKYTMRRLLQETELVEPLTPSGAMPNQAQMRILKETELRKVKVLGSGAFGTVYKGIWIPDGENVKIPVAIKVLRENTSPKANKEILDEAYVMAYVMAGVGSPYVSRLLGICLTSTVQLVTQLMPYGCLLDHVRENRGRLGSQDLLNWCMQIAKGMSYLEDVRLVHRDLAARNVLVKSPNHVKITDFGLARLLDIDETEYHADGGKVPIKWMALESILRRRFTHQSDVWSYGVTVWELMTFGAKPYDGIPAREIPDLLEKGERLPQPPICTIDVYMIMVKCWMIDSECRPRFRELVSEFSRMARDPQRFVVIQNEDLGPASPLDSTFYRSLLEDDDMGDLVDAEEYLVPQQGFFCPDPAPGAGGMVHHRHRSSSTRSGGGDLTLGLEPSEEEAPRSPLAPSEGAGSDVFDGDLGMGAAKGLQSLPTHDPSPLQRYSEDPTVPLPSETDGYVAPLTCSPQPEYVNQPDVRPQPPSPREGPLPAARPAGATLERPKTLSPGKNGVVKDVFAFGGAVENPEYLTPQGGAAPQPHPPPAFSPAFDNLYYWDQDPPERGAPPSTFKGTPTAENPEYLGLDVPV

| Structure (SMILES) | IC50 (EGFR) [nM] | IC50 (ErbB2 WT) [nM] | IC50 [1] [nM] | IC50 (EGFR wild type (EGFR WT) [2]) [nM] | IC50 [3] [nM] | efflux ratio at 2 h, 1 μM (MDR1 (P-gp) [4]) | efflux ratio at 2 h, 1 μM (BCRP) | IC50 (EGFR wild type (EGFR WT) [5]) [nM] | efflux ratio at 2 h, 1 μM (MDR1 (P-gp) [6]) |
| --- | --- | --- | --- | --- | --- | --- | --- | --- | --- |
| CSc1ncc2ncnc(Nc3ccc(Oc4ccc5conc5c4)c(C)c3)c2n1 [Example 10, N-(4-(benzo[c]isoxazol-6-yloxy)-3-methylphenyl)-6-(methylthio)pyrimido[5,4-d]pyrimidin-4-amine] | ≥ 10000 | 144 | 49 | 5000 | 671 |  |  |  |  |
| Cc1cc(Nc2ncnc3cnc(NC4CCC4)nc23)ccc1Oc1ccc2c(c1)ncn2C [Example 14, N2-cyclobutyl-N8-(3-methyl-4-((1-methyl-1H-benzo[d]imidazol-5-yl)oxy)phenyl)pyrimido[5,4-d]pyrimidine-2,8-diamine] | ≥ 10000 | 85.9 | 56.2 |  | 37 | 1.3 | 0.9 | ≥ 5000 |  |
| CSc1ncc2ncnc(Nc3ccc(Oc4ccc5c(C)onc5c4)c(C)c3)c2n1 [Example 12, N-(3-methyl-4-((3-methylbenzo[c]isoxazol-6-yl)oxy)phenyl)-6-(methylthio)pyrimido[5,4-d]pyrimidin-4-amine] | ≥ 10000 | 275 | 64.2 | 5000 | 403 |  |  |  |  |
| Cc1cc(Nc2ncnc3cnc(NCC4CC4)nc23)ccc1Oc1ccc2c(c1)ncn2C [Example 20, N2-(cyclopropylmethyl)-N8-(3-methyl-4-((1-methyl-1H-benzo[d]imidazol-5-yl)oxy)phenyl)pyrimido[5,4-d]pyrimidine-2,8-diamine] | ≥ 10000 | 130 | 66.1 |  | 44.8 | 1.9 | 0.7 | ≥ 5000 |  |
| Cc1cc(Nc2ncnc3cnc(S(C)(=O)=O)nc23)ccc1Oc1ccc2c(c1)ncn2C [Example 2, N-(3-methyl-4-((1-methyl-1H-benzo[d]imidazol-5-yl)oxy)phenyl)-6-(methylsulfonyl)pyrimido[5,4-d]pyrimidin-4-amine] | 4640 | 14.9 | 7.9 | 5000 | 4750 |  |  |  |  |
| Cc1cc(Nc2ncnc3cnc(N(C)C)nc23)ccc1Oc1ccc2c(c1)ncn2C [Example 3, N2,N2-dimethyl-N8-(3-methyl-4-((1-methyl-1H-benzo[d]imidazol-5-yl)oxy)phenyl)pyrimido[5,4-d]pyrimidine-2,8-diamine 2,2,2-trifluoroacetate] | 8250 | 52.4 | 12.5 | 5000 | 42.9 | 1 |  |  | 1 |
| COc1ncc2ncnc(Nc3ccc(Oc4ccc5c(c4)ncn5C)c(C)c3)c2n1 [Example 8, 6-methoxy-N-(3-methyl-4-((1-methyl-1H-benzo[d]imidazol-5-yl)oxy)phenyl)pyrimido[5,4-d]pyrimidin-4-amine 2,2,2-trifluoroacetate] | ≥ 10000 | 69.7 | 22.7 | 5000 | 159 | 0.9 |  |  | 1 |
| Cc1c(Oc2ccc3c(c2)ncn3C)ccc(Nc2ncnc3cnc(N4CCOCC4)nc23)c1F [Example 263] | ≥ 10000 | 137 | 57.6 |  | 16.1 | 0.9 | 1.5 | ≥ 5000 |  |
| CNc1ncc2ncnc(Nc3ccc(Oc4ccc5c(c4)ncn5C)c(C)c3)c2n1 [Example 4, N2-methyl-N8-(3-methyl-4-((1-methyl-1H-benzo[d]imidazol-5-yl)oxy)phenyl)pyrimido[5,4-d]pyrimidine-2,8-diamine] | 4900 | 30 | 8.9 | 5000 | 7.2 | 0.9 |  |  | 1.4 |
| Cc1cc(Nc2ncnc3cnc(NC4(C)CC4)nc23)ccc1Oc1ccc2c(c1)ncn2C [Example 268] | ≥ 10000 | 93.7 | 82 |  | 39 | 1.5 | 1.1 | ≥ 5000 |  |
| Cc1cc(Nc2ncnc3cnc(N4CCOCC4)nc23)ccc1Oc1ccc2c(c1)ncn2C [Example 9, N-(3-methyl-4-((1-methyl-1H-benzo[d]imidazol-5-yl)oxy)phenyl)-6-morpholinopyrimido[5,4-d]pyrimidin-4-amine 2,2,2-trifluoroacetate] | ≥ 10000 | 64 | 13.6 | 5000 | 4.9 | 0.8 |  |  | 1.2 |
| CSc1ncc2ncnc(Nc3ccc(Oc4ccc5csnc5c4)c(C)c3)c2n1 [Example 11, N-(4-(benzo[c]isothiazol-6-yloxy)-3-methylphenyl)-6-(methylthio)pyrimido[5,4-d]pyrimidin-4-amine 2,2,2-trifluoroacetate] | 925 | 97.4 | 54.4 | 5000 | 95.1 | 0.7 |  |  | 0.7 |
| CSc1ncc2ncnc(Nc3ccc(Oc4ccc5c(c4)ncn5C)c(C)c3)c2n1 [Example 1, N-(3-methyl-4-((1-methyl-1H-benzo[d]imidazol-5-yl)oxy)phenyl)-6-(methylthio)pyrimido[5,4-d]pyrimidin-4-amine] | ≥ 10000 | 41.1 | 19.3 | 5000 | 29.2 | 1.2 |  |  | 1.4 |
| Cc1cc(Nc2ncnc3cnc(S(C)(=O)=O)nc23)ccc1Oc1ccc2c(C)onc2c1 [Example 5, N-(3-methyl-4-((3-methylbenzo[c]isoxazol-6-yl)oxy)phenyl)-6-(methylsulfonyl)pyrimido[5,4-d]pyrimidin-4-amine] | 4150 | 10.9 | 9.8 | 5000 | 4450 |  |  |  |  |
| COc1ncc2ncnc(Nc3ccc(Oc4ccc5csnc5c4)c(C)c3)c2n1 [Example 7, N-(4-(benzo[c]isothiazol-6-yloxy)-3-methylphenyl)-6-methoxypyrimido[5,4-d]pyrimidin-4-amine 2,2,2-trifluoroacetate] | 2010 | 56.8 | 18.5 | 5000 | 146 | 1 |  |  | 1.3 |
| COc1ncc2ncnc(Nc3ccc(Oc4ccc5c(C)onc5c4)c(C)c3)c2n1 [Example 6, 6-methoxy-N-(3-methyl-4-((3-methylbenzo[c]isoxazol-6-yl)oxy)phenyl)pyrimido[5,4-d]pyrimidin-4-amine] | ≥ 10000 | 232 | 24.6 | 5000 | 1450 |  |  |  |  |
